Experimental data from ChEMBL document CHEMBL5728890, “HDAC6 inhibitors and imaging agents” (2021).
pIC50: −log10 of the molar value.

Columns and labels:
Histone deacetylase 5 = Histone deacetylase 5 (Homo sapiens, UniProt Q9UQL6); test: (§1) IC50 Assay: IC50 measurements were conducted by BPS Biosciences (Table 1) or by Nanosyn (Table 1A) with an established fluorescence assay.
[1] = molecular target: T1, Polyamine deacetylase HDAC10 (Homo sapiens, UniProt Q969S8); test: as §1
T1 sequence (Q969S8 whole entry): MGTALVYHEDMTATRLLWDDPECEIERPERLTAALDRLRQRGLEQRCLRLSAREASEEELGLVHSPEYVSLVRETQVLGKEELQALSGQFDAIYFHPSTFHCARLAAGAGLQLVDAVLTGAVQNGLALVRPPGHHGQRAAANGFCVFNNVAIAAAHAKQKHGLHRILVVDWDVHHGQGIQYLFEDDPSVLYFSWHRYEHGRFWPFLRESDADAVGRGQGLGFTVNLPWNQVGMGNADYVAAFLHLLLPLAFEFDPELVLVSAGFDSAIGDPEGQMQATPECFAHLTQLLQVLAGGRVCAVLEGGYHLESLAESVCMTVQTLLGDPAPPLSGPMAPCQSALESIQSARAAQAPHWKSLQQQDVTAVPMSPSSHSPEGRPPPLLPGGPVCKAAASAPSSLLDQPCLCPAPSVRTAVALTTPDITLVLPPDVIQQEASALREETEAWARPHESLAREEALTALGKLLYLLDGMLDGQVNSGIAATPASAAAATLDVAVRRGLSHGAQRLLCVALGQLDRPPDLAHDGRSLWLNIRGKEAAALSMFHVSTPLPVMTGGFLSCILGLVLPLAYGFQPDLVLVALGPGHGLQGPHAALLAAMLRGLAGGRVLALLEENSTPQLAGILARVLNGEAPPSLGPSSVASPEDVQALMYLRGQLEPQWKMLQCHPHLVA

[2] = molecular target: T2, Protein deacetylase HDAC6 (Homo sapiens, UniProt Q9UBN7); test: as §1
T2 sequence (Q9UBN7 whole entry): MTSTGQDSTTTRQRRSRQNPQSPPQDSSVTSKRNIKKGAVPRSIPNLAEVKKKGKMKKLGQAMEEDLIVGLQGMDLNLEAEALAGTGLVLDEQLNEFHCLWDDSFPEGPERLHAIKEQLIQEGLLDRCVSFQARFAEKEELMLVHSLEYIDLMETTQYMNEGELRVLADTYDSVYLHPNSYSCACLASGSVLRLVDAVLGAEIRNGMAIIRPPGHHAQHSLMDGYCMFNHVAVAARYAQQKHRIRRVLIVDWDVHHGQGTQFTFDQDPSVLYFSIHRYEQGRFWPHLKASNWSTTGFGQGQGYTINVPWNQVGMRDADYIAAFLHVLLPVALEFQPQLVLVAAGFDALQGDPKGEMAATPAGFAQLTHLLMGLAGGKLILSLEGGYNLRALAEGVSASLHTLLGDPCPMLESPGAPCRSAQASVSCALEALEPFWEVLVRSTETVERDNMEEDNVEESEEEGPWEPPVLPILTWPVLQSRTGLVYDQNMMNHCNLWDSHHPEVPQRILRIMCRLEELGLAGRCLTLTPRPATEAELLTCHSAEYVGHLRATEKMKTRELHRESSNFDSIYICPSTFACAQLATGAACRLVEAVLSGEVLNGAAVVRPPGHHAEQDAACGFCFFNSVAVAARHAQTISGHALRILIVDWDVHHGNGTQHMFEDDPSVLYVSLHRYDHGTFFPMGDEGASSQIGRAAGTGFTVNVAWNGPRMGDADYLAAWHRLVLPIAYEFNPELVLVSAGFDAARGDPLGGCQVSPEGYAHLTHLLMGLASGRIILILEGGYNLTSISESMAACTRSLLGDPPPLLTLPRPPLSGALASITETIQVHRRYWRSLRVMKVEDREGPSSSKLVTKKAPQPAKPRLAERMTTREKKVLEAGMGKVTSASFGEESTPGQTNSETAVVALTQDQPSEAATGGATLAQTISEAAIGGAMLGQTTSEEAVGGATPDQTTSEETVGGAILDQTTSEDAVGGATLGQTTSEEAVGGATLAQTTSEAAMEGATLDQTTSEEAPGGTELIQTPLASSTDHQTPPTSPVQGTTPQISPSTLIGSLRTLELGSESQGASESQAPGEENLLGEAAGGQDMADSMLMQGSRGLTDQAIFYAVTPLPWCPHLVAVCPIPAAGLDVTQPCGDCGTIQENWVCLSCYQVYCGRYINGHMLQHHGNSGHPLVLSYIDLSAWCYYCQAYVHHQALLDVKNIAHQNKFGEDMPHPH

Histone deacetylase 11 = molecular target: T3, Histone deacetylase 11 (Homo sapiens, UniProt Q96DB2); test: as §1
T3 sequence (Q96DB2 whole entry): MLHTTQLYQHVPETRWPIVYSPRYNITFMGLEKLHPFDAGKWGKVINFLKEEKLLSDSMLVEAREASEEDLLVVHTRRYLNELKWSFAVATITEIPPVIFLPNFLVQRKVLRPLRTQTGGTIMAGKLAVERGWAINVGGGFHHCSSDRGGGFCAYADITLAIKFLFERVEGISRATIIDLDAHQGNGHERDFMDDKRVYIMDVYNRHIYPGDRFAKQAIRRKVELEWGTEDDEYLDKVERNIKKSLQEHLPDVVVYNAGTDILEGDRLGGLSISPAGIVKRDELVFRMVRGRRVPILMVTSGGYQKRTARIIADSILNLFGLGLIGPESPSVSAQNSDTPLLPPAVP

Histone deacetylase 7 = molecular target: T4, Histone deacetylase 7 (Homo sapiens, UniProt Q8WUI4); test: as §1
T4 sequence (Q8WUI4 whole entry): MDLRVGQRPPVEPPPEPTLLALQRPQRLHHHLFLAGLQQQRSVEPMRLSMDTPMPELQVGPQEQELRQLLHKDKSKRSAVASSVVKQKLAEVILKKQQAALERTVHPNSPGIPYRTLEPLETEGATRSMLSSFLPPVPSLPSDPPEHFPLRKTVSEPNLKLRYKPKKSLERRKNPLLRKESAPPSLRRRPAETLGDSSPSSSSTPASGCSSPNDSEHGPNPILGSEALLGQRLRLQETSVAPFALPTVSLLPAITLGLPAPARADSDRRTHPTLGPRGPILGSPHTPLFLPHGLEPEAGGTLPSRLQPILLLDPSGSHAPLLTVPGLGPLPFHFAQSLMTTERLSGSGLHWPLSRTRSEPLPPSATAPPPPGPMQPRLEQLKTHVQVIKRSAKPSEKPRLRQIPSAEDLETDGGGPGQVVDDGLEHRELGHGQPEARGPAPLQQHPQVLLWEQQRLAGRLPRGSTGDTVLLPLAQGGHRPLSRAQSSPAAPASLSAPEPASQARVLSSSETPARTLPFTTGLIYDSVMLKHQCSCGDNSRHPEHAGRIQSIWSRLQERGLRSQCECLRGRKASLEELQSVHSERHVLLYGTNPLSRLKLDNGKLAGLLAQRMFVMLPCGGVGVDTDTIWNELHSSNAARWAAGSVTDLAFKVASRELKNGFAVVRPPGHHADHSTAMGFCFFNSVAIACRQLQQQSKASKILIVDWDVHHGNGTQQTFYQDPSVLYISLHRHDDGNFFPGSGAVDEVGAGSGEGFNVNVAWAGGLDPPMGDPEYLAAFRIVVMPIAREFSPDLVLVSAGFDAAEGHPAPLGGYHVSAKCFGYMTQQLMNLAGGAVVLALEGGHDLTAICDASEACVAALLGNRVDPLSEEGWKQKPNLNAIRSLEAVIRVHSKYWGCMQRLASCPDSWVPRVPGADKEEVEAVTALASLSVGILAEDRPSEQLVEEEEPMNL

Histone deacetylase 8 = molecular target: T5, Histone deacetylase 8 (Homo sapiens, UniProt Q9BY41); test: as §1
T5 sequence (Q9BY41 whole entry): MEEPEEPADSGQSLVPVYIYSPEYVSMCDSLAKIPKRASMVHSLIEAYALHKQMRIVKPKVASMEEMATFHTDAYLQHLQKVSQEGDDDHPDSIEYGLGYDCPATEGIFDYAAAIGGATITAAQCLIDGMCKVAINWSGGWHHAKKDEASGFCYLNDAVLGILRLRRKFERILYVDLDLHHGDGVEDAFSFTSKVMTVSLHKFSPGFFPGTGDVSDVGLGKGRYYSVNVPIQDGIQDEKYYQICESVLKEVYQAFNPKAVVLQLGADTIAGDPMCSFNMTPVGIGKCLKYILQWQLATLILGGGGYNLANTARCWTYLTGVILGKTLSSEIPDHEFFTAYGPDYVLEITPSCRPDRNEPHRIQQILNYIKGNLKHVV

Histone deacetylase 9 = Histone deacetylase 9 (Homo sapiens, UniProt Q9UKV0); test: as §1
Sequence of Histone deacetylase 9 (Q9UKV0 whole entry): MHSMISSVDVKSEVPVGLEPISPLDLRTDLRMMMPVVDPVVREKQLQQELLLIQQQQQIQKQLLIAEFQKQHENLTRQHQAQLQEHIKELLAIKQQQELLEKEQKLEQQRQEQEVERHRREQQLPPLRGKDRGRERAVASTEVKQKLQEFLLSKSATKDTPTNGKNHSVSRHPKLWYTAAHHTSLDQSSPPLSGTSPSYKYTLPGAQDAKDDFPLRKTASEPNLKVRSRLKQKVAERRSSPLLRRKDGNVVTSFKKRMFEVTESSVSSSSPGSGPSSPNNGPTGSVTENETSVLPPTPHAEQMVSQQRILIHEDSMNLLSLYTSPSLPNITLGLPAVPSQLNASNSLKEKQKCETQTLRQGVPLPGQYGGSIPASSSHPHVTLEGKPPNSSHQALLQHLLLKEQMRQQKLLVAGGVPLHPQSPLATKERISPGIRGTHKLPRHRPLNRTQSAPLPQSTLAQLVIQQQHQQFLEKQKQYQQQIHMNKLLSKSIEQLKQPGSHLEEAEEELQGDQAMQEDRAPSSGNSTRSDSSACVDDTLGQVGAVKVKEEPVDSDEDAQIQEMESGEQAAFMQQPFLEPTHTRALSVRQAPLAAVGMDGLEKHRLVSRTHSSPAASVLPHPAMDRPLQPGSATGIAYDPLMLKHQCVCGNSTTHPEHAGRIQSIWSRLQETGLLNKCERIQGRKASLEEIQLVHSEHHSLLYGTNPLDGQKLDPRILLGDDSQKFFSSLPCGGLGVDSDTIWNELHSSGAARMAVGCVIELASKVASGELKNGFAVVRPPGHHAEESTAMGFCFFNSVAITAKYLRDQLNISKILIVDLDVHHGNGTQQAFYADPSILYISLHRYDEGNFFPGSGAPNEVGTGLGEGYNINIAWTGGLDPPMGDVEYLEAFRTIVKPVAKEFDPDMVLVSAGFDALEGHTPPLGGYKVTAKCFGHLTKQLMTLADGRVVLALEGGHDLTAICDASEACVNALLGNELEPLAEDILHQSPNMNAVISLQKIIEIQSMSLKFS

Histone deacetylase 1 = Histone deacetylase 1 (Homo sapiens, UniProt Q13547); test: as §1
Sequence of Histone deacetylase 1 (Q13547 whole entry): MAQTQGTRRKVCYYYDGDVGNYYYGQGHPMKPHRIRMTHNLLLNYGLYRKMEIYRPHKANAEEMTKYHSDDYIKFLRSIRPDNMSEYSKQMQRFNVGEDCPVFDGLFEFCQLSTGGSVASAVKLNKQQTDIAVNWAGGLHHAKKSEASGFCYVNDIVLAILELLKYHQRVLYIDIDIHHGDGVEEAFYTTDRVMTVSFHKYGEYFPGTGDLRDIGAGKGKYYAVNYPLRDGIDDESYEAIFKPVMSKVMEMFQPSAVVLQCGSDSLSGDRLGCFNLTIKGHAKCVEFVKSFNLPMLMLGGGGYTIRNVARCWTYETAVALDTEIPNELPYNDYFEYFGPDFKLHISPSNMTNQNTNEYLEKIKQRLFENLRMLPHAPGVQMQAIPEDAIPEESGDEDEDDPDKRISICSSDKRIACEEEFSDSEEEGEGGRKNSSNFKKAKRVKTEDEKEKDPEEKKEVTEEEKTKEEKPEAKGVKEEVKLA

Histone deacetylase 4 = Histone deacetylase 4 (Homo sapiens, UniProt P56524); test: as §1
Sequence of Histone deacetylase 4 (P56524 whole entry): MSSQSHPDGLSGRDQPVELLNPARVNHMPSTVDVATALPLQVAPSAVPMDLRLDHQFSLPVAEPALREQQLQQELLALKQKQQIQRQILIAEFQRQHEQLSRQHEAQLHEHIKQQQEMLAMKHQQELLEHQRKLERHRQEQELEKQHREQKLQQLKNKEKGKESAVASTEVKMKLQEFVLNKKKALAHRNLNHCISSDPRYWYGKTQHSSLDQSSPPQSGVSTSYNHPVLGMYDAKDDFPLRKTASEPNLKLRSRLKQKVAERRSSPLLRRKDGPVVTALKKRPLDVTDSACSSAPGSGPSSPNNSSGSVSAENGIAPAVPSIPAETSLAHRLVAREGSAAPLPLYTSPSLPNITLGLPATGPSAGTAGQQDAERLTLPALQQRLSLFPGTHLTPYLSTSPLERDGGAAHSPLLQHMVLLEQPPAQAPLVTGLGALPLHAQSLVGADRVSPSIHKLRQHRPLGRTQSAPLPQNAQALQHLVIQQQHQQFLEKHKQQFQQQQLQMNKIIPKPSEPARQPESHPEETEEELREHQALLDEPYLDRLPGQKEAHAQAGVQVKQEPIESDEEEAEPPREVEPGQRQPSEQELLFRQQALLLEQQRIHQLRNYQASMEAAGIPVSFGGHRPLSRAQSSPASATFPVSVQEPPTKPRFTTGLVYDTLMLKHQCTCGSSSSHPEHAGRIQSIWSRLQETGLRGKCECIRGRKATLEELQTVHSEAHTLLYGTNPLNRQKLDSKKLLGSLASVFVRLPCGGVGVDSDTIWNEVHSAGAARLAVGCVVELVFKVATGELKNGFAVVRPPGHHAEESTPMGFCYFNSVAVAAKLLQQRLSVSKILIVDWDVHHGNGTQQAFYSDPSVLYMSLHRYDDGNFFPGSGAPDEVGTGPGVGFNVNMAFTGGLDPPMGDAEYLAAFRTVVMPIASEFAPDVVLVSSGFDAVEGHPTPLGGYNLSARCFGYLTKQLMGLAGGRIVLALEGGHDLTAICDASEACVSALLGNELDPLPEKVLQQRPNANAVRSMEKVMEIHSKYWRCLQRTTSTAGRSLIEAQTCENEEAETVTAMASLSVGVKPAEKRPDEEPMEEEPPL

Histone deacetylase 3 = Histone deacetylase 3 (Homo sapiens, UniProt O15379); test: as §1
Sequence of Histone deacetylase 3 (O15379 whole entry): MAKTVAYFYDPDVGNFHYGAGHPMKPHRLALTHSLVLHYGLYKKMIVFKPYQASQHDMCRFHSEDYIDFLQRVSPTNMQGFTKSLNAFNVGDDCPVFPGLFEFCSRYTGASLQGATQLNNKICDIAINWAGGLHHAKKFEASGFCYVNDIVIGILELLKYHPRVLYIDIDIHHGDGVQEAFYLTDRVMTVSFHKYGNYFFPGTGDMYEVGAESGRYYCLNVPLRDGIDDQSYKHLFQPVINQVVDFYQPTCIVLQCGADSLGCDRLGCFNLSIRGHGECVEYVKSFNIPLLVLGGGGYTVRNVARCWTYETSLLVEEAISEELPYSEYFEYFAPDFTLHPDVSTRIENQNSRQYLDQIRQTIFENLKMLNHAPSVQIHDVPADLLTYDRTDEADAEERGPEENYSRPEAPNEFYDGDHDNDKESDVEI

Sequence of Histone deacetylase 5 (Q9UQL6 whole entry): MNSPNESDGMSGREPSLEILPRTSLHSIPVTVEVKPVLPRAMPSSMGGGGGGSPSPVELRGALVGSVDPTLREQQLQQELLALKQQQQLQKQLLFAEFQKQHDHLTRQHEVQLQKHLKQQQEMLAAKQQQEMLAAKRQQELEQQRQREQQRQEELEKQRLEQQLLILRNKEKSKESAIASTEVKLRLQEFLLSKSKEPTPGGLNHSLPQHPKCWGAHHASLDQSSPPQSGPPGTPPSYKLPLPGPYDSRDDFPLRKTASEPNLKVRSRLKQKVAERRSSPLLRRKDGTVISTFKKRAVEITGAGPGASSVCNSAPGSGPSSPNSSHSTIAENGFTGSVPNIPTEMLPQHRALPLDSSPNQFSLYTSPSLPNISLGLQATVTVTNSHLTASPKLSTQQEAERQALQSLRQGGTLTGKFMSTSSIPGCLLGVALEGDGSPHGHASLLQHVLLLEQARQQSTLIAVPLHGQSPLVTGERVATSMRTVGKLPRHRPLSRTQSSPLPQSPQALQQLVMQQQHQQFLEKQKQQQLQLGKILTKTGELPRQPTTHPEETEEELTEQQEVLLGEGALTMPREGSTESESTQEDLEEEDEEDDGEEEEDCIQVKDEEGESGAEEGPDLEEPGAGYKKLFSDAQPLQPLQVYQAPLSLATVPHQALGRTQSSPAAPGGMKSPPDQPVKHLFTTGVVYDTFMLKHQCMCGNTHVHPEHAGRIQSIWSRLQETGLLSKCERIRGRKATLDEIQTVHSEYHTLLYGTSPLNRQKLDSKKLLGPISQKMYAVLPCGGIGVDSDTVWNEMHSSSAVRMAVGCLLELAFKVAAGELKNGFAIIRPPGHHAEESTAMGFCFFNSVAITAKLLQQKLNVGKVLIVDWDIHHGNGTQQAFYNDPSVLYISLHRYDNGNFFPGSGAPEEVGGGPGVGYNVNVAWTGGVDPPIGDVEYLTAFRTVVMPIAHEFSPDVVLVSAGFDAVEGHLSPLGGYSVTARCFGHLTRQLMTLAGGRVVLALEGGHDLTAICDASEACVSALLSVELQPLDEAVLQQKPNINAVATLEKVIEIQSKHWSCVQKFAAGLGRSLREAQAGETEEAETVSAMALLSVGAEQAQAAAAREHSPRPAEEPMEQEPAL

Compound	pIC50 (Histone deacetylase 5)	pIC50 [1]	pIC50 [2]	pIC50 (Histone deacetylase 11)	pIC50 (Histone deacetylase 7)	pIC50 (Histone deacetylase 8)	pIC50 (Histone deacetylase 9)	pIC50 (Histone deacetylase 1)	pIC50 (Histone deacetylase 4)	pIC50 (Histone deacetylase 3)
CN(Cc1ccc(/C=C/C(=O)NO)cc1F)CC12CC3CC(CC(C3)C1)C2	< 6.00	7.48	6.74	< 6.00	< 6.00	< 6.00	< 6.00	7.77	< 6.00	7.64
O=C(CCCCCCNC(=O)c1cnc(N(c2ccccc2)c2ccccc2)nc1)NO [RICOLINOSTAT]		< 6.00								
CC(=O)Nc1ccc(C(=O)Nc2ccccc2N)cc1 [TACEDINALINE]				5.55						
